US10364249B2, “Azatriangulenium salts as PET-quenched fluorescent probes” (KØBENHAVNS UNIVERSITET, priority 2013, dated 2019)
Like-named read-outs stand apart in the source and are kept apart here.

Columns and labels:
Type in all cases: physicochemical
[1] = Photophysical properties and pKa of DAOTA dyes, fluorescence intensity at different pH, 6% DMSO in PBS buffer; conditions: for pKa: 6% DMSO in PBS buffer solution, normalized fluorescence intensity at 588 nm at different pH, sigmoidal fits (FIG. 8)
Description: FIG. 6. Absorption spectra of MR-68_DAOTA measured in 6% DMSO in PBS buffer solution. Circles (o) represent the absorption spectrum of the protonated form (measured at acidic conditions) and crosses (x) represent the absorption spectrum of the deprotonated form (measured at basic conditions).
FIG. 7. Emission spectra of MR-68_DAOTA measured in 6% DMSO in PBS buffer solution. Circles (o) represent the absorption spectrum of the protonated form (measured at acidic conditions) and crosses (x) represent the absorption spectrum of the deprotonated form (measured at basic conditions).
FIG. 8. […] The solid lines are sigmoidal fits to the experimental data.
(§1) Emission spectroscopy was performed in front-face set-up for sensor spot samples and in a conventional L-shape set-up for measuremetns in solution. A Perkin-Elmer LS50B and a Horiba Fluorolog 3 were used interchangeably. Intensity based sensor measurements were only performed on the LS50B platform. Fluorescence lifetime based sensor measurements were only performed on the Fluorolog 3. Absorption spectroscopy was performed on a Perkin Elmer Lambda1050, with integrating sphere (for sensor spots) and with a 3-detector module for solution samples.

[2] = Ratiometric emission of pH sensor spot with dyes bound into SOL-GEL-matrix at different pH; conditions: for pKa from ratiometric emission signal: with R1C
Experimental: FIG. 9. Emission spectra of a pH sensor spot loaded with I1C (signal at ca. 590 nm) and R1C (signal at ca. 650 nm) covalently bound into the SOL-GEL-matrix recorded at different pH values (solid line: pH 2.48, circles: pH 6.26, crosses: 9.89).
as §1
The compounds according to 6 or 7 are mixed into either the ETEOS or the GPTMS gel component 1 h after mixing of the materials described. Subsequently, the ETEOS or the GPTMS gel components are mixed. The two components are then mixed in 1:1 molar ratio and left at a stirring table for no less than 3 days. The dyes 6 or 7 are added in an amount so that a final concentration of 0.1 mM of dye is obtained in the final GPTMS-ETEOS mixture. The resulting GPTMS-ETEOS-dye mixture is then deposited and cured at 110° C. for 3-4 hours.

[3] = Absorption and emission spectra, photophysical properties of pH-responsive triangulenium dyes in solution; parameters: λmax (wavelength of maximum absorption) / λem (wavelength of maximum emission): unit not given here; conditions: for pKa / λem (wavelength of maximum emission) / λmax (wavelength of maximum absorption): in solution; for ϕfl- (φfl-off, fluorescence quantum yield, off-state): off-state (quenched); for ϕfl- (φfl-on, fluorescence quantum yield, on-state): on-state (not quenched)
Experimental: Absorption and emission spectrum of the prepared triangulenium compounds of Formula (I) were measured and their photophysical properties are compiled in table 2.
pKa is −log10 of the acid dissociation constant, Ka, and is a quantitative measure of the strength of an acid in solution. λmax denotes the wavelength wherein maximum absorption is obtained. λem denotes the wavelength wherein maximum emission is obtained. φfl-on and φfl-off are the fluorescence quantum yields, wherein the responsive fluorescent compounds are in their on-state (not quenched) and off-state (quenched), respectively. Ion/Ioff is the ratio between φfl-on and φfl-off.
All disclosed absorption and emission spectrum measurement shown herein are measured as follows:
as §1

[4] = Readout and chemical stability of optical sensor of DMQA+ and 4g in ORMOSIL matrix
Experimental: In order to validate the sensor performance, different stability tests were performed. One critical parameter for an optical sensor is known to be the read-out stability. Another critical parameter for optical sensors is the chemical stability.

[5] = Comparison of solution and sol-gel spectra and titration curves of 4g; conditions: upon attaching to the matrix material
Description: The arrow indicates the change from pH˜11 to pH˜1.

[6] = first value of cell, protonated form
[7] = second value of cell, deprotonated form
[8] = covalently bound into the SOL-GEL-matrix

η, quenching efficiency of the fluorescence intensity [1] [%]	pKa [1]	εmax, molar absorption coefficient [1, 6]	λ max, wavelength at the maximum fluorescence intensity [1, 6]	λabs max, wavelength at maximum absorption of the lowest energy transition [1, 6] [nm]	εmax, molar absorption coefficient [1, 7]	λ max, wavelength at the maximum fluorescence intensity [1, 7]	λabs max, wavelength at maximum absorption of the lowest energy transition [1, 7] [nm]	Ion/Io (Ion/Ioff, ratio between φfl-on and φfl-off) [3]	pKa [3]	λem (wavelength of maximum emission) [3]	λmax (wavelength of maximum absorption) [3]	ϕfl- (φfl-off, fluorescence quantum yield, off-state) [3] [%]	ϕfl- (φfl-on, fluorescence quantum yield, on-state) [3] [%]	Compound	further results
99	8.5	13600 M⁻¹ cm⁻¹	590/590 nm	554	13500 M⁻¹ cm⁻¹	590/590 nm	559							CN1c2cccc3c2C2c4c(cccc4N(c4cccc(O)c4)c4cccc1c42)O3 (stereo not drawn)	
														8-(1-methyl-1-propyl-3-(3-(triethoxysilyl)propyl)urea)-4,8-diazatriangulenium-4-(4-(methylsulfonyl)phenolate) [Compound I2C]	pKa from ratiometric emission signal [2, 8]: 5.4
														8-(1-methyl-1-propyl-3-(3-(triethoxysilyl)propyl)urea)-4,8-diazatriangulenium-4-(4-(trifluoromethyl)phenolate) [Compound I1C]	emission signal ([2]; pH sensor spot, covalently bound into the SOL-GEL-matrix): ca. 590 nm; pKa from ratiometric emission signal [2, 8]: 6.3
								~50	6.9	558	541	>0.5	8	Oc1ccccc1N1c2cccc3c2C2c4c(cccc4Oc4cccc1c42)O3 [Compound 3b, N-(2-hydroxyphenyl)-azadioxatriangulenium tetrafluoroborat]	
								~50	7.3	558	540	>0.5	8	Oc1cccc(N2c3cccc4c3C3c5c(cccc5Oc5cccc2c53)O4)c1 [Compound 3c, N-(3-hydroxyphenyl)-azadioxatriangulenium tetrafluoroborat]	
								~50	8.3	563	540	>0.5	2	Oc1ccc(N2c3cccc4c3C3c5c(cccc5Oc5cccc2c53)O4)cc1 [Compound 3d]	
										590	557			CCCCCCCCCCCCN1c2cccc3c2C2c4c(cccc4N(c4cc(F)ccc4O)c4cccc1c42)O3 (stereo not drawn) [Compound 4f, 4-dodecyl-8-(5-fluoro-2-hydroxyphenyl)-4,8-diaza-12-oxa-4,8,12,12c-tetrahydro-dibenzo[cd,mn]-pyrenylium]	
								~100	3.4	590	557	6	26	CCCCCCCCCCCCN1c2cccc3c2C2c4c(cccc4N(c4cc(S(C)(=O)=O)ccc4O)c4cccc1c42)O3 (stereo not drawn) [Compound 4g, 4-dodecyl-8-(2-hydroxy-5-(methylsulfonyl)phenyl)-4,8-diaza-12-oxa-4,8,12,12c-tetrahydro-dibenzo[cd,mn]-pyrenylium]	responsiveness of ratiometric readout signal ([4]; constant illumination, low and high pH): maintains its responsiveness; ratiometric readout signal stable for ([4]; high and low pH): at least 16 hours; spectral change and pH response, solution versus sol-gel [5]: spectral change is minimal while the response to changing pH is maintained
								~50	6.5	590	557			CCCCCCCCCCCCn1c2cccc3oc4cccc5c4[c+](c32)c2c1cccc2n5-c1cc(C(F)(F)F)ccc1O [Compound 4h, N-(2-hydroxy-5-(trifluoromethyI)phenyl)-N-dodecyl-diazaoxatriangulenium hexafluorophosphat]	
														CCO[Si](CCCNC(=O)N(C)CCCn1c2cccc(OC)c2[c+]2c3c(OC)cccc3n(CCCN(C)C(=O)NCCC[Si](OCC)(OCC)OCC)c3cccc1c32)(OCC)OCC [Compound R1C, 5,9-bis(4,4-diethoxy-10-methyl-9-oxo-3-oxa-8,10-diaza-4-silatridecan-13-yl)-1,13-dimethoxy-5,9-dihydro-13bH-quinolino[2,3,4-kl]acridin-13b-ylium hexafluorophosphate]	emission signal [2]: ca. 650 nm
>99	6.2	16600/16600 M^−1cm^−1	585 nm	553	16600/16600 M^−1cm^−1	588 nm	558							CN1c2cccc3c2C2c4c(cccc4N(c4cc(C(F)(F)F)ccc4O)c4cccc1c42)O3 (stereo not drawn) [MR-66_DAOTA]	
99	7.3	14700 M⁻¹ cm⁻¹	586 nm	553	14300 M⁻¹ cm⁻¹	588 nm	557							CN1c2cccc3c2C2c4c(cccc4N(c4cc(O)cc(C(F)(F)F)c4)c4cccc1c42)O3 (stereo not drawn) [MR-67.1_DAOTA]	
>99	8.6	14400 M⁻¹ cm⁻¹	591/591 nm	555	14100 M⁻¹ cm⁻¹	591/591 nm	560							CN1c2cccc3c2C2c4c(cccc4N(c4ccc(O)cc4)c4cccc1c42)O3 (stereo not drawn) [MR-93_DAOTA]	
